Measurements published in patent US11117900B2 (Vertex Pharmaceuticals Incorporated, priority 2012, dated 2021).

test system: HCT116 colorectal cancer cells; test: Cisplatin sensitization assay (96 h MTS cell viability); assay type: cell-based; settings: Cisplatin sensitization value;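 also: compound concentration needed to lower the IC50 of Cisplatin alone by a set fold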
In short: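 HCT116 cells were dosed simultaneously with compound and cisplatin as a full matrix of 2-fold serial dilutions from 10 μM top final concentration. Incubation was 96 h at 37° C., 5% CO2, followed by 1 h with MTS reagent for the viability read-out. Sensitization values were binned into +++, ++ and + categories.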

Row | Structure (SMILES) | Cisplatin Sensitization Assay
1 | Cc1cncnc1-c1ccncc1NC(=O)c1c(N)nn2cc(F)cnc12 [I-C-67, 2-amino-6-fluoro-N-(4-(5-methylpyrimidin-4-yl)pyridin-3-yl)pyrazolo[1,5-a]pyrimidine-3-carboxamide] | ++ (Compounds with a Cisplatin sensitization value >0.02 μM but <0.2 μM are marked with “++.”)
2 | N#CCc1cnc2c(C(=O)Nc3cnccc3O[C@@H]3CCNC3)c(N)nn2c1 [I-O-87, (R)-2-amino-6-(cyanomethyl)-N-(4-(pyrrolidin-3-yloxy)pyridin-3-yl)pyrazolo[1,5-a]pyrimidine-3-carboxamide] | ++ (Compounds with a Cisplatin sensitization value >0.02 μM but <0.2 μM are marked with “++.”)
3 | CN1CC[C@H](Oc2ccncc2NC(=O)c2c(N)nn3cc(Cl)cnc23)C1 [I-O-69, (S)-2-amino-6-chloro-N-(4-((1-methylpyrrolidin-3-yl)oxy)pyridin-3-yl)pyrazolo[1,5-a]pyrimidine-3-carboxamide] | ++ (Compounds with a Cisplatin sensitization value >0.02 μM but <0.2 μM are marked with “++.”)
4 | CN1CCC(c2c(F)cncc2NC(=O)c2c(N)nn3cc(F)cnc23)CC1 [I-C-14, 2-amino-6-fluoro-N-(5-fluoro-4-(1-methylpiperidin-4-yl)pyridin-3-yl)pyrazolo[1,5-a]pyrimidine-3-carboxamide] | + (Compounds with a Cisplatin sensitization value >0.2 μM but <5 μM are marked with “+.”)
5 | Cc1nncn1-c1ccncc1NC(=O)c1c(N)nn2cc(F)cnc12 [I-N-263, 2-amino-6-fluoro-N-(4-(3-methyl-4H-1,2,4-triazol-4-yl)pyridin-3-yl)pyrazolo[1,5-a]pyrimidine-3-carboxamide] | + (Compounds with a Cisplatin sensitization value >0.2 μM but <5 μM are marked with “+.”)
6 | CS(=O)(=O)C1CCN(c2ccncc2NC(=O)c2c(N)nn3cc(F)cnc23)CC1 [I-N-190, 2-amino-6-fluoro-N-(4-(4-(methylsulfonyl)piperidin-1-yl)pyridin-3-yl)pyrazolo[1,5-a]pyrimidine-3-carboxamide] | +++ (Compounds with a Cisplatin sensitization value of <0.02 μM are marked with “+++.”)
7 | CO[C@H]1CCN(C(=O)C2CCN(c3ccncc3NC(=O)c3c(N)nn4cc(F)cnc34)CC2)C1 [I-G-94, (S)-2-amino-6-fluoro-N-(4-(4-(3-methoxypyrrolidine-1-carbonyl)piperidin-1-yl)pyridin-3-yl)pyrazolo[1,5-a]pyrimidine-3-carboxamide] | +++ (Compounds with a Cisplatin sensitization value of <0.02 μM are marked with “+++.”)
8 | Nc1nn2cc(Cl)cnc2c1C(=O)Nc1cnccc1N1CCC(N2CCC3(COC3)C2)CC1 [I-N-99, N-(4-(4-(2-oxa-6-azaspiro[3.4]octan-6-yl)piperidin-1-yl)pyridin-3-yl)-2-amino-6-chloropyrazolo[1,5-a]pyrimidine-3-carboxamide] | +++ (Compounds with a Cisplatin sensitization value of <0.02 μM are marked with “+++.”)
9 | Nc1nn2cc(F)cnc2c1C(=O)Nc1cnccc1-c1ccccc1 [I-C-5, 2-amino-6-fluoro-N-(4-phenylpyridin-3-yl)pyrazolo[1,5-a]pyrimidine-3-carboxamide] | +++ (Compounds with a Cisplatin sensitization value of <0.02 μM are marked with “+++.”)
10 | CN(C)CCOc1cc(Cl)ncc1NC(=O)c1c(N)nn2cc(Cl)cnc12 [I-O-68, 2-amino-6-chloro-N-(6-chloro-4-(2-(dimethylamino)ethoxy)pyridin-3-yl)pyrazolo[1,5-a]pyrimidine-3-carboxamide] | ++ (Compounds with a Cisplatin sensitization value >0.02 μM but <0.2 μM are marked with “++.”)
11 | Cc1nc(F)ccc1-c1ccncc1NC(=O)c1c(N)nn2cc(F)cnc12 [I-C-34, 2-amino-6-fluoro-N-(6-fluoro-2-methyl-[3,4′-bipyridin]-3′-yl)pyrazolo[1,5-a]pyrimidine-3-carboxamide] | +++ (Compounds with a Cisplatin sensitization value of <0.02 μM are marked with “+++.”)
